{
  "source": "BindingDB's records for doi:10.1016/j.bmcl.2005.03.024",
  "about": "(Johnson & Johnson Pharmaceutical, 2005)",
  "note": "pIC50: −log10 of the molar value.",
  "data": [
    {"molecular_target": "Cyclin-dependent kinase/G2/mitotic-specific cyclin- 1 (Homo sapiens, UniProt P06493)", "sequence (P06493 whole entry)": "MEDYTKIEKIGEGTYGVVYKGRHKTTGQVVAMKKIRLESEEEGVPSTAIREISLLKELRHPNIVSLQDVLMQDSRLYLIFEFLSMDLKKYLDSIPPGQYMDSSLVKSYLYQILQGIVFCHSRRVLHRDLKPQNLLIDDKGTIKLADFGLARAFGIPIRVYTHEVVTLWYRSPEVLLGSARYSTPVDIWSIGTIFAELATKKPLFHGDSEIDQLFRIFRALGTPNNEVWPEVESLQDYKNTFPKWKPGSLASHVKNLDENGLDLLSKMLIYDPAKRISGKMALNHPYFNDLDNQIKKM", "sequence (P14635 whole entry, further chain)": "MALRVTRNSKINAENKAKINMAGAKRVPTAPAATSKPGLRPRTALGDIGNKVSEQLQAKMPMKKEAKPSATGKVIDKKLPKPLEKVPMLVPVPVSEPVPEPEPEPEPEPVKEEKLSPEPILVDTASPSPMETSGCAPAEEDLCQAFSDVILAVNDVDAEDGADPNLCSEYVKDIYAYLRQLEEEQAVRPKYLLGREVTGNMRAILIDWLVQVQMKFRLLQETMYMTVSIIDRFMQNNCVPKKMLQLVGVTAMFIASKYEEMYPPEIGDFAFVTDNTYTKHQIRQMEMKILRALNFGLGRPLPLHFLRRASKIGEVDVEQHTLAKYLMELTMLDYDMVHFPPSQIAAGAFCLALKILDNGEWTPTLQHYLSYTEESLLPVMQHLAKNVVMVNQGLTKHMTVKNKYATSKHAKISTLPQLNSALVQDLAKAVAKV", "test": "Kinase Inhibition Assay", "details": "not given", "protocol": "(§1) The enzyme was assayed with a biotinylated peptide substrate and test compounds in the presence of 10 uM ATP/[gamma-33P]ATP in a streptavidin coated FlashPlate (Perkin-Elmer, Boston, MA). Inhibition of the enzymatic activity due to the compound was measured by observing a reduced amount of 33P-gamma-ATP incorporated into the immobilized peptide relative to untreated controls. Linear regression analysis of the percent of inhibition by the test compound was used to calculate IC50 values.", "values": [
      {"smiles": "CCN(CC)S(=O)(=O)c1ccc(Nc2ccc(C(=O)c3ccco3)c(N)n2)cc1", "note": "[4-{[6-amino-5-(furan-2-ylcarbonyl)pyridin-2-yl]amino}-N,N-diethylbenzene-1-sulfonamide]", "pIC50": "< 4.00"},
      {"smiles": "Nc1nc(Nc2ccc(S(=O)(=O)N(Cc3ccccc3)Cc3ccccc3)cc2)ccc1C(=O)c1c(F)cccc1F", "note": "[4-({6-amino-5-[(2,6-difluorophenyl)carbonyl]pyridin-2-yl}amino)-N,N-dibenzylbenzene-1-sulfonamide]", "pIC50": "< 5.00"},
      {"smiles": "Nc1ccc(C(=O)c2ccco2)c(N)n1", "note": "[3-(furan-2-ylcarbonyl)pyridine-2,6-diamine]", "pIC50": "< 4.00"},
      {"smiles": "Nc1ccc(C(=O)c2cccs2)c(N)n1", "note": "[3-(thiophen-2-ylcarbonyl)pyridine-2,6-diamine]", "pIC50": "< 4.00"},
      {"smiles": "CCN(CC)S(=O)(=O)c1ccc(Nc2ccc(C(=O)c3ccccc3)c(N)n2)cc1", "note": "[4-[(6-amino-5-benzoylpyridin-2-yl)amino]-N,N-diethylbenzene-1-sulfonamide]", "pIC50": "< 4.00"}
    ]},
    {"molecular_target": "Cyclin-dependent kinase/G2/mitotic-specific cyclin- 1 (Homo sapiens, UniProt P06493)", "test": "Kinase Inhibition Assay", "details": "pH 8; 30 °C", "protocol": "as §1", "values": [
      {"smiles": "Nc1nc(Nc2ccccc2[N+](=O)[O-])ccc1C(=O)c1c(F)cccc1F", "note": "[5-[(2,6-difluorophenyl)carbonyl]-2-N-(2-nitrophenyl)pyridine-2,6-diamine]", "pIC50": "< 5.00"},
      {"smiles": "Nc1nc(Nc2ccccc2NC(=O)c2ccccc2)ccc1C(=O)c1c(F)cccc1F", "note": "[N-[2-({6-amino-5-[(2,6-difluorophenyl)carbonyl]pyridin-2-yl}amino)phenyl]benzamide]", "pIC50": "< 4.00"},
      {"smiles": "Nc1nc(Nc2ccccc2NS(=O)(=O)c2ccccc2)ccc1C(=O)c1c(F)cccc1F", "note": "[N-[2-({6-amino-5-[(2,6-difluorophenyl)carbonyl]pyridin-2-yl}amino)phenyl]benzenesulfonamide]", "pIC50": "< 4.00"},
      {"smiles": "CC(=O)Nc1ccccc1Nc1ccc(C(=O)c2c(F)cccc2F)c(N)n1", "note": "[N-[2-({6-amino-5-[(2,6-difluorophenyl)carbonyl]pyridin-2-yl}amino)phenyl]acetamide]", "pIC50": "< 4.00"}
    ]}
  ]
}
